Legend:
Format in all cases: cell-based
[1] = system: Salmonella typhimurium TA100; test: Ames test (plate incorporation), strain TA100
Protocol: Mutagenicity assay was performed following the plate incorporation method with the histidine-requiring Salmonella typhimurium mutant TA98 and TA100 strains. All strains (100 µl per plate of fresh overnight cultures) were checked with and without the addition of 0.5 mL of a 5% S9 exogenous metabolic activator (S9 mix). The lyophilized post-mitochondrial supernatant S9 mix (Aroclor 1254-induced, Sprague–Dawley male rat liver in 0.154 M KCl solution, Molecular Toxicology, Inc., Boone, NC, USA), commonly used for the activation of pro-mutagens to mutagenic metabolites, was stored at− 80 °C before use. The concentration tested for all the samples were 1, 5, 10, 50, 100 µL/plate of a stock solution 100 mg/mL.
A fully-grown culture of the appropriate tester strain (0.1 mL) was added to 2 mL Molten Top Agar (0.6% agar, 0.6% NaCl, 0.5 mM L-histidine/biotin solution) at 46 °C, together with 0.1 mL of each sample solution at different concentrations, and 0.5 mL S9 mix for assays with metabolic activation or 0.5 mL of phosphate buffer pH 7.4 to test without metabolic activation. The ingredients were thoroughly mixed and poured onto minimal glucose agar plates (1.5% agar in 2% Vogel–Bonner medium E with 5% glucose solution).
DMSO was used as a negative control (100 µl/plate). Positive controls were prepared as follows: 2-aminoanthracene (2 µg/plate) and 2-nitrofluorene (2 µg/plate) for TA98 with and without metabolic activator (S9 mix) respectively; 2-aminoanthracene (2 µg/plate) and sodium azide (2 µg/plate) for TA100, with and without metabolic activator (S9 mix) respectively. The plates were incubated at 37 °C for 72 h and then the his^+ revertants were checked and counted using a Colony Counter 560 Suntex (Antibioticos, Italy). A sample was considered mutagenic when the observed number of colonies was at least twofold over the spontaneous level of revertants. All determinations were made in triplicate. Relative standard deviations were computed using the statistical software […] 6.0 (StatSoft Italia srl).

[2] = target: T1, human glucocorticoid receptor (NR3C1) (Homo sapiens, UniProt P04150); test: Glucocorticoid receptor transactivation reporter assay; details: 10 µM, 24 h, luciferase reporter cells
T1 construct: constitutive high-level expression of full length, unmodified human glucocorticoid receptor (NR3C1)
T1 sequence (P04150 1-777): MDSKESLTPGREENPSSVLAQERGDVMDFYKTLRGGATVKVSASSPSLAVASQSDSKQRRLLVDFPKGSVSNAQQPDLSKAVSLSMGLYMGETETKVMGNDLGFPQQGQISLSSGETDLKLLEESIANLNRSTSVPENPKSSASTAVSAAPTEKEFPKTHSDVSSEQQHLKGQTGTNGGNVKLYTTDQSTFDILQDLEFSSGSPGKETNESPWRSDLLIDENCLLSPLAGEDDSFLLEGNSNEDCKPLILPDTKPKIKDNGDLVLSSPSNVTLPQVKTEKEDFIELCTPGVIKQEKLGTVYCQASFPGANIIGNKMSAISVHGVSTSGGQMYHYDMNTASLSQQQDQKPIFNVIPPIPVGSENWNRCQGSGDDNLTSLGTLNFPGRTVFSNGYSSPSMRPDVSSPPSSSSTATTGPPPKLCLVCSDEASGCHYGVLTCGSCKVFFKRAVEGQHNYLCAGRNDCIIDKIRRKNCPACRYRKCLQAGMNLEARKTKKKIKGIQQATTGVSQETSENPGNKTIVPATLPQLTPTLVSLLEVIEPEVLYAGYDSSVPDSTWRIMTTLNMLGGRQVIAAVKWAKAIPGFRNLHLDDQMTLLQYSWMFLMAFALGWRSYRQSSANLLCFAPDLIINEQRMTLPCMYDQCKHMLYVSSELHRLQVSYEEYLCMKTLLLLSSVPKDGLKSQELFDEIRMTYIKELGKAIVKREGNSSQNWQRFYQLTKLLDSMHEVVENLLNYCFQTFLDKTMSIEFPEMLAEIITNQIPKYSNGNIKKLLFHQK
Protocol: Glucocorticoid receptor transactivation assays kit was obtained from Indigo Biosciences (Human Glucocorticoid Receptor Reporter Assay Kit, Product #IB0020-32; Indigo Biosciences, State College, PA, USA) and was utilized to assess the activation of human glucocorticoid receptor by SCA and/or SCB. Briefly, stocks of the tested compounds were prepared and diluted in a medium provided by the manufacturer. Frozen reporter cells provided in the assay kit were thawed and compound dilutions were added immediately. Cells were incubated for 24 h and the activation response was measured on a luminometer (Perkin-Elmer, MA, USA). The cells consisted of non-human mammalian cells engineered by Indigo Biosciences to provide constitutive high-level expression of full length, unmodified human glucocorticoid receptor (NR3C1). The nonhuman mammalian reporter cells included a luciferase reporter gene functionally linked to a human glucocorticoid receptor-responsive promoter. The cells are engineered so that only interactions with the human receptor will induce luciferase expression in the treated reporter cells to quantitate nuclear receptor activation. Positive control ligand performance was measured by the manufacturer and provided in the technical manuals thus allowing accurate comparison for assay performance. […]

[3] = system: primary cultures of rat cerebral cortex neurons; test: Glutamate-induced neurotoxicity, MTT viability; details: 10 μM, added 15 min before glutamate; viability 24 h later
Protocol: Primary cultures of cortical neurons have been prepared from 1 day-old male rats [41]. After re-suspension in the plating medium, the cells were counted and then plated on poly-l-lysine (5 μg/mL)-coated dishes at a density of 2.5 × 10^6 cells/dish or on poly-l-lysine (5 μg/mL)-coated 24-well plates at a density of 0.5 × 10^6 cells/dish. The plating medium consisted of Eagle's Basal Medium supplemented with 10% inactivated fetal calf serum, 25 mM KCl, 2 mM glutamine and 100 μg/mL gentamycine. […] Cytosine arabinoside (10 μM) was added within 24 h of plating to prevent glial cell proliferation [41]. The cultures were maintained for 8 days in vitro before experiments.
The cultures were then returned to the incubator in their growth medium. 24 h later, the glutamate-induced neurotoxicity was evaluated by measuring the neuronal viability. The different drugs tested were added 15 min before glutamate exposure and were present until the end of the experiment.
The integrity of mitochondrial enzymes in viable neurons was determined with a colorimetric assay using 3-[4,5-dimethylthial-2-yl]-3, 5-diphenyl-tetrazolinium bromide (MTT) salt, as described by Mosdam [42]. […] The precipitated dye was dissolved in isopropanol with 1 M HCl and colorimetrically (absorbance at 570 nm) quantified. The results were expressed as values of absorbance at 570 nm.

[4] = TA100, + S9, 1 µL/plate of a stock solution 100 mg/mL
[5] = TA100, + S9, 5 µL/plate of a stock solution 100 mg/mL
[6] = TA100, + S9, 10 µL/plate of a stock solution 100 mg/mL
[7] = TA100, + S9, 50 µL/plate of a stock solution 100 mg/mL
[8] = TA100, + S9, 100 µL/plate of a stock solution 100 mg/mL
[9] = TA100, − S9, 1 µL/plate of a stock solution 100 mg/mL
[10] = TA100, − S9, 5 µL/plate of a stock solution 100 mg/mL
[11] = TA100, − S9, 10 µL/plate of a stock solution 100 mg/mL
[12] = TA100, − S9, 50 µL/plate of a stock solution 100 mg/mL
[13] = TA100, − S9, 100 µL/plate of a stock solution 100 mg/mL

| Structure (SMILES) | genotoxic activity (Ames test) [1] | average number of revertant colonies [1, 4] | t/c (revertant colonies in treated plates/untreated plates) [1, 4] | average number of revertant colonies [1, 5] | t/c (revertant colonies in treated plates/untreated plates) [1, 5] | average number of revertant colonies [1, 6] | t/c (revertant colonies in treated plates/untreated plates) [1, 6] | average number of revertant colonies [1, 7] | t/c (revertant colonies in treated plates/untreated plates) [1, 7] | average number of revertant colonies [1, 8] | t/c (revertant colonies in treated plates/untreated plates) [1, 8] | average number of revertant colonies [1, 9] | t/c (revertant colonies in treated plates/untreated plates) [1, 9] | average number of revertant colonies [1, 10] | t/c (revertant colonies in treated plates/untreated plates) [1, 10] | average number of revertant colonies [1, 11] | t/c (revertant colonies in treated plates/untreated plates) [1, 11] | average number of revertant colonies [1, 12] | t/c (revertant colonies in treated plates/untreated plates) [1, 12] | average number of revertant colonies [1, 13] | other results |
| --- | --- | --- | --- | --- | --- | --- | --- | --- | --- | --- | --- | --- | --- | --- | --- | --- | --- | --- | --- | --- | --- |
| Cc1ccc(O)c2c1CCC1C3CC[C@](O)([C@H](O)CO)[C@@]3(C)CC(=O)[C@@]21O (stereo partly drawn) [SCB, 1,9β,17,20β,21‐ pentahydoxy‐4‐methyl‐19‐nor‐9β‐pregna‐1,3,5(10)‐trien‐11‐one] | For none of the samples genotoxic activity emerged | 190 | 1.0 | 194 | 1.0 | 193 | 1.0 | 189 | 1.0 | 195 | 1.0 | 157 | 0.9 | 169 | 1.0 | 164 | 1.0 | 169 | 1.0 | 180 | t/c (revertant colonies in treated plates/untreated plates) [1, 13]: 1.1; glucocorticoid receptor activation [2]: activated glucocorticoid receptors; effect on glutamate-induced neurotoxicity (cell viability, MTT) [3]: partially reduced |
| Cc1ccc(O)c2c1CCC1C3CC[C@](O)(C(=O)CO)[C@@]3(C)CC(=O)[C@@]21O (stereo partly drawn) [SCA, 1,9β,17,21‐tetrahydoxy‐4‐methyl‐19‐nor‐9β‐pregna‐1,3,5(10)‐trien‐11,20‐dione] | For none of the samples genotoxic activity emerged | 179.3 | 1.0 | 181.7 | 1.0 | 185.3 | 1.0 | 205.7 | 1.1 | 194.3 | 1.1 | 163.0 | 1.0 | 164.3 | 1.0 | 158.0 | 1.0 | 157.0 | 0.9 | 166.7 | t/c (revertant colonies in treated plates/untreated plates) [1, 13]: 1.0; glucocorticoid receptor activation [2]: activated glucocorticoid receptors; effect on glutamate-induced neurotoxicity (cell viability, MTT) [3]: partially reduced |

From paper PMC9685055, “Biological activity of new bioactive steroids deriving from biotransformation of cortisone” (Microbial Cell Factories, 2022)
